# What was measured:
# redroot pigweed = assay: Test A pre-/postemergence herbicide test; type: in vivo, Amaranthus retroflexus
# Summary of the method: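 Sandy loam soil given preemergence directed spray; plants at 2 to 10 cm, one- to two-leaf stage, sprayed to runoff postemergence, compounds in non-phytotoxic solvent with surfactant. Injury rated visually versus untreated controls after about ten greenhouse days, 0 (no effect) to 100 (complete control); dash means not tested.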
# corn = assay: Test B pre-/postemergence herbicide test; type: in vivo, Zea mays
# Summary of the method: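 Test chemicals in a non-phytotoxic solvent mixture with surfactant were applied preemergence to seeded species and postemergence to plants 2-18 cm tall (1- to 4-leaf stage); rice and barnyardgrass were also tested in a flooded paddy at the 2-leaf stage. Visual rating versus controls after 13-15 days in greenhouse, scale 0 (no effect) to 100 (complete control).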
# blackgrass = assay: Test B postemergence herbicide test; type: in vivo, Alopecurus myosuroides
# Summary of the method: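 Read-out: visual comparison with controls, scored 0 to 100, where 100 means complete control and 0 no effect. Formulated chemicals were applied postemergence to plants 2–18 cm tall (1- to 4-leaf), or to flooded-paddy plants at the 2-leaf stage, then held 13 to 15 days under glass.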
# woolly cupgrass = assay: Test C pre-/postemergence herbicide test; type: in vivo, Eriochloa villosa
# Summary of the method: (§1)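 Preemergence: seeds planted and treated with compound in non-phytotoxic solvent with surfactant; postemergence: plants at 2 to 18 cm (1- to 4-leaf stage) sprayed likewise. Kept in greenhouse 12 to 14 days, then visually rated against controls, 0 (no effect) to 100 (complete control).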
# common ragweed = assay: Test C pre-/postemergence herbicide test; type: in vivo, Ambrosia elatior; design: key to Plant response rating, Ragweed: 0 = no effect, 100 = complete control
# Summary of the method: as §1
# soybean = assay: Test C pre-/postemergence herbicide test; type: in vivo, Glycine max
# Summary of the method: as §1
# rice = assay: Test C flooded paddy test; type: in vivo, Oryza sativa; conditions: for Plant response rating, Rice: 500 g ai/ha, visual rating after 12 to 14 days
# Summary of the method: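 Injury scored visually against controls on a 0 (no effect) to 100 (complete control) scale, 12 to 14 days after treatment in greenhouse. Flooded paddy plants treated at 2-leaf stage; postemergence plants at 1- to 4-leaf stage, 2 to 18 cm tall.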
# ducksalad = assay: Test C flooded paddy test; type: in vivo, Heteranthera limosa; conditions: for Plant response rating, Ducksalad: 500 g ai/ha, visual rating after 12 to 14 days
# [1] = 500 g ai/ha, visual rating 0-100, 0 no effect, 100 complete control, preemergence
# [2] = Postemergence, 500 g ai/ha, visual rating after 13 to 15 days, scale 0 (no effect) to 100 (complete control)
# [3] = postemergence, 125 g ai/ha, visual rating, scale 0 (no effect) to 100 (complete control)
# [4] = 125 g ai/ha, scale 0 (no effect) to 100 (complete control), visual, 12 to 14 days, preemergence
# [5] = 250 g ai/ha, scale 0 to 100 (0 no effect, 100 complete control), visual, 12 to 14 days, preemergence
# [6] = Postemergence, 500 g ai/ha, scale 0 to 100
# [7] = Postemergence, 250 g ai/ha, scale 0 to 100, 0 no effect, 100 complete control
# [8] = Preemergence, 500 g ai/ha, scale 0 to 100, 0 no effect, 100 complete control
# [9] = postemergence, 125 g ai/ha, scale 0 to 100
# [10] = postemergence, 62 g ai/ha, scale 0 to 100
# [11] = 62 g ai/ha, scale 0 to 100 (0 no effect, 100 complete control)
# [12] = 125 g ai/ha, scale of 0 to 100, 0 is no effect, 100 is complete control
# [13] = 250 g ai/ha, scale of 0 to 100, 0 is no effect, 100 is complete control
# [14] = scale 0 to 100 (0 no effect, 100 complete control)
# [15] = 125 g ai/ha, 0 is no effect, 100 is complete control, preemergence
# [16] = 125 g ai/ha, visual rating, scale 0 (no effect) to 100 (complete control), postemergence
# [17] = Postemergence, 500 g ai/ha, scale 0 (no effect) to 100 (complete control)
# [18] = 62 g ai/ha, preemergence, scale 0 to 100
# [19] = 250 g ai/ha, scale 0-100, preemergence
# [20] = 500 g ai/ha, scale 0 to 100 (0 no effect, 100 complete control), visual, 12 to 14 days, preemergence
# [21] = 125 g ai/ha, scale 0 to 100 (0 no effect, 100 complete control)
# [22] = postemergence, 500 g ai/ha, visual rating, scale 0 (no effect) to 100 (complete control)
# [23] = postemergence, 500 g ai/ha, scale 0 to 100, 0 is no effect, 100 is complete control
structure (smiles),measurement,setting,value
CCn1nc(C(C)(C)C)cc1C(=O)Nc1cccc(C(C)=NO)c1 [Compound 108],Pigweed plant response rating,"redroot pigweed; Postemergence, 500 g ai/ha, 0 to 100 scale, 0 no effect, 100 complete control",100
same,"Plant response rating, Pigweed","redroot pigweed; Postemergence, 2000 g ai/ha, 0 to 100 scale, 0 no effect, 100 complete control",100
same,Pigweed plant response rating,"redroot pigweed; Preemergence, 500 g ai/ha, visual rating, 0 to 100 scale (0 no effect, 100 complete control)",100
same,Pigweed plant response rating,"redroot pigweed; Preemergence, 2000 g ai/ha, visual rating, 0 to 100 scale (0 no effect, 100 complete control)",100
same,"Plant response rating, Corn",corn; [1],30
same,"Plant response rating, Corn",corn; [2],20
same,Corn plant response rating,corn; [3],10
same,"Plant response rating, Corn","corn; preemergence, 125 g ai/ha, 0 to 100 scale, 0 is no effect, 100 is complete control",10
same,"Plant response rating, Blackgrass",blackgrass; [2],20
same,Blackgrass plant response rating,blackgrass; [3],0
same,"Plant response rating (0 = no effect, 100 = complete control), Cupgrass, Woolly","woolly cupgrass; 62 g ai/ha, preemergence",30
same,"Plant response rating, Cupgrass, Woolly",woolly cupgrass; [4],50
same,"Plant response rating, Cupgrass, Woolly",woolly cupgrass; [5],50
same,"Cupgrass, Woolly plant response rating",woolly cupgrass; [6],40
same,"Plant response rating, Cupgrass, Woolly",woolly cupgrass; [7],40
same,"Cupgrass, Woolly plant response rating",woolly cupgrass; [8],80
same,"Plant response rating, Cupgrass, Woolly",woolly cupgrass; [9],40
same,"Plant response rating, Cupgrass, Woolly",woolly cupgrass; [10],20
same,"Plant response rating (0 = no effect, 100 = complete control), Ragweed","common ragweed; 62 g ai/ha, preemergence",20
same,"Plant response rating, Ragweed",common ragweed; [4],20
same,Ragweed plant response rating,common ragweed; [8],90
same,"Plant response rating, Soybean",soybean; [4],0
same,Soybean plant response rating,soybean; [6],60
same,"Plant response rating, Soybean",soybean; [7],60
same,Soybean plant response rating,soybean; [8],10
same,"Plant response rating, Soybean",soybean; [9],60
same,"Plant response rating, Soybean",soybean; [10],50
same,Rice plant response rating,rice; [11],0
same,Rice plant response rating,rice; [12],0
same,Rice plant response rating,rice; [13],20
same,"Plant response rating, Rice",rice; [14],50
same,Ducksalad plant response rating,ducksalad; [11],50
same,Ducksalad plant response rating,ducksalad; [12],70
same,Ducksalad plant response rating,ducksalad; [13],80
same,"Plant response rating, Ducksalad",ducksalad; [14],90
Cc1nn(C(C)(C)C)nc1C(=O)Nc1cccc(C(=O)N(C)C)c1 [Compound 391],"Plant response rating (0 to 100 scale), Corn",corn; [15],90
same,Corn plant response rating,corn; [16],10
same,Corn plant response rating,corn; [17],30
same,Blackgrass plant response rating,blackgrass; [16],30
same,Blackgrass plant response rating,blackgrass; [17],70
same,"Plant response rating, Cupgrass, Woolly",woolly cupgrass; [18],70
same,"Plant response rating (0 = no effect, 100 = complete control), Cupgrass, Woolly","woolly cupgrass; 125 g ai/ha, preemergence",75
same,"Plant response rating, Cupgrass, Woolly",woolly cupgrass; [19],80
same,"Plant response rating, Cupgrass, Woolly",woolly cupgrass; [20],100
same,"Plant response rating, Ragweed",common ragweed; [18],85
same,"Plant response rating (0 = no effect, 100 = complete control), Ragweed","common ragweed; 125 g ai/ha, preemergence",100
same,"Plant response rating, Ragweed",common ragweed; [19],100
same,"Plant response rating, Ragweed",common ragweed; [20],100
same,"Plant response rating, Soybean",soybean; [18],95
same,"Plant response rating (0 = no effect, 100 = complete control), Soybean","soybean; 125 g ai/ha, preemergence",95
same,"Plant response rating, Soybean",soybean; [19],100
same,"Plant response rating, Soybean",soybean; [20],100
same,Rice plant response rating,"rice; 62 g ai/ha, scale 0 to 100",65
same,Rice plant response rating,rice; [21],65
same,Rice plant response rating,rice; [13],75
same,"Plant response rating, Rice",rice; [14],80
same,Ducksalad plant response rating,"ducksalad; 62 g ai/ha, scale 0 to 100",85
same,Ducksalad plant response rating,ducksalad; [21],85
same,Ducksalad plant response rating,ducksalad; [13],85
same,"Plant response rating, Ducksalad",ducksalad; [14],95
CCc1nn(C(C)(C)C)cc1C(=O)Nc1cccc(C(C)=NO)c1 [Compound 188],Corn plant response rating (0 to 100 scale),"corn; 125 g ai/ha, 0 = no effect, 100 = complete control, preemergence",10
same,"Plant response rating, Corn",corn; [1],50
same,Corn plant response rating,corn; [3],10
same,Corn plant response rating,corn; [22],20
same,Blackgrass plant response rating,blackgrass; [3],10
same,Blackgrass plant response rating,blackgrass; [22],10
same,"Plant response rating, Cupgrass, Woolly",woolly cupgrass; [18],0
same,"Plant response rating, Cupgrass, Woolly",woolly cupgrass; [4],60
same,"Plant response rating, Cupgrass, Woolly",woolly cupgrass; [5],70
same,"Cupgrass, Woolly plant response rating",woolly cupgrass; [8],75
same,"Plant response rating, Ragweed",common ragweed; [18],0
same,"Plant response rating, Ragweed",common ragweed; [4],65
same,Ragweed plant response rating,common ragweed; [8],100
same,"Plant response rating, Soybean",soybean; [18],0
same,"Plant response rating, Soybean",soybean; [4],0
same,Soybean plant response rating,soybean; [8],0
same,Rice plant response rating,rice; [11],35
same,Rice plant response rating,rice; [21],45
same,Rice plant response rating,rice; [13],65
same,"Plant response rating, Rice",rice; [14],75
same,Ducksalad plant response rating,ducksalad; [11],20
same,Ducksalad plant response rating,ducksalad; [21],65
same,Ducksalad plant response rating,ducksalad; [13],75
same,"Plant response rating, Ducksalad",ducksalad; [14],85
CCn1nc(C(C)(C)C)cc1C(=O)Nc1cccc(OC(F)(F)C(F)F)c1 [Compound 333],"Plant response rating (0 to 100 scale), Corn",corn; [15],0
same,Corn plant response rating,corn; [16],10
same,"Plant response rating, Corn","corn; 500 g ai/ha, visual rating, 0 = no effect, 100 = complete control, preemergence",0
same,Corn plant response rating,corn; [23],10
same,Blackgrass plant response rating,blackgrass; [16],30
same,Blackgrass plant response rating,blackgrass; [23],70
same,"Plant response rating, Cupgrass, Woolly",woolly cupgrass; [18],0
same,"Plant response rating, Cupgrass, Woolly",woolly cupgrass; [4],0
same,"Plant response rating, Cupgrass, Woolly",woolly cupgrass; [19],0
same,"Plant response rating, Cupgrass, Woolly",woolly cupgrass; [20],30
same,"Cupgrass, Woolly plant response rating",woolly cupgrass; [6],10
same,"Plant response rating, Cupgrass, Woolly",woolly cupgrass; [7],5
same,"Plant response rating, Cupgrass, Woolly",woolly cupgrass; [9],0
same,"Plant response rating, Cupgrass, Woolly",woolly cupgrass; [10],0
same,"Plant response rating, Ragweed",common ragweed; [18],0
same,"Plant response rating, Ragweed",common ragweed; [19],50
same,"Plant response rating, Ragweed",common ragweed; [20],65
same,Ragweed plant response rating,common ragweed; [6],50
same,"Plant response rating, Ragweed",common ragweed; [7],50
same,"Plant response rating, Ragweed",common ragweed; [9],30
same,"Plant response rating, Ragweed",common ragweed; [10],5
same,"Plant response rating, Soybean",soybean; [18],0
same,"Plant response rating, Soybean",soybean; [19],0
same,"Plant response rating, Soybean",soybean; [20],0
same,Soybean plant response rating,soybean; [6],45
same,"Plant response rating, Soybean",soybean; [7],40
same,"Plant response rating, Soybean",soybean; [9],30
same,"Plant response rating, Soybean",soybean; [10],30
same,Rice plant response rating,"rice; 62 g ai/ha, scale 0 to 100",0
same,Rice plant response rating,rice; [21],0
same,Rice plant response rating,rice; [13],15
same,"Plant response rating, Rice",rice; [14],20
same,Ducksalad plant response rating,"ducksalad; 62 g ai/ha, scale 0 to 100",0
same,Ducksalad plant response rating,ducksalad; [21],0
same,Ducksalad plant response rating,ducksalad; [13],0
same,"Plant response rating, Ducksalad",ducksalad; [14],25

# — patent US20060069132A1, “Azolecarboxamide herbicides” (priority 2004, published 2006)
